In ChEMBL document CHEMBL5046266, “Synthesis and Evaluation of Structurally Diverse C-2-Substituted Thienopyrimidine-Based Inhibitors of the Human Geranylgeranyl Pyrophosphate Synthase” (J Med Chem, 2022):

Experiments:
[1] = target: T1, Geranylgeranyl pyrophosphate synthase (Homo sapiens, UniProt O95749)
T1 sequence (O95749 whole entry): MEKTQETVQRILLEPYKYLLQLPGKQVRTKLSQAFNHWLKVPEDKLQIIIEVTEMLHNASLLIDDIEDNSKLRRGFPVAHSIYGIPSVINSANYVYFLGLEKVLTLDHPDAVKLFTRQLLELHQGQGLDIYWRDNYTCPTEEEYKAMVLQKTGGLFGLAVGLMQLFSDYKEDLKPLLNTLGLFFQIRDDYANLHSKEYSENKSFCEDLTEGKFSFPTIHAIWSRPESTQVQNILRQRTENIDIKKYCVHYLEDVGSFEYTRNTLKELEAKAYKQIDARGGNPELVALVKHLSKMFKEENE

[2] = target: T2, Farnesyl pyrophosphate synthase (Homo sapiens) (UniProt P14324); assay: Inhibition of human FPPS expressed in Escherichia coli BL21 (DE3) at 1 uM preincubated for 10 mins in presence compound relative to control
T2 sequence (whole entry): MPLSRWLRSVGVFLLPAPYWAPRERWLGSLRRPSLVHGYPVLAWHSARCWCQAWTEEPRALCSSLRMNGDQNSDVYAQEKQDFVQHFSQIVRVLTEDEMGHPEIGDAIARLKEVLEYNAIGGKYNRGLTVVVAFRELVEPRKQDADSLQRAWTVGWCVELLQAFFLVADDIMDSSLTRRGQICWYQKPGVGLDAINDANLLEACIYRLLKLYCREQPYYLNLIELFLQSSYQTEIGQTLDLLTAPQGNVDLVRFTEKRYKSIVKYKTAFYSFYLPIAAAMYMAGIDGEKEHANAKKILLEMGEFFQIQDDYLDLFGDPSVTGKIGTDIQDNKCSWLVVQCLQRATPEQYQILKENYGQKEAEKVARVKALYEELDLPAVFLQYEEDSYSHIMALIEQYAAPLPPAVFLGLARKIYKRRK

RPMI-8226 = assay: cells; conditions: Homo sapiens, RPMI-8226, 72 h
[3] = target: T3, Farnesyl pyrophosphate synthase (Homo sapiens, UniProt P14324)
T3 sequence (P14324 whole entry): T2 sequence (whole entry)

in vitro = conditions: human, bone marrow mononuclear cells

CO[C@H](C(=O)Nc1cccc(-c2nc(NC(P(=O)(O)O)P(=O)(O)O)c3ccsc3n2)c1)c1ccccc1
IC50 [1]: 38 nM | inhibition [2]: 55% | EC50 (RPMI-8226): 390 nM

COc1ccc([C@@H](OC(C)C)C(=O)Nc2cccc(-c3nc(NC(P(=O)(O)O)P(=O)(O)O)c4ccsc4n3)c2)cc1F
IC50 [1]: 20 nM | EC50 (RPMI-8226): > 5000 nM | IC50 [3]: 730 nM

O=C(Nc1cccc(-c2nc(NC(P(=O)(O)O)P(=O)(O)O)c3ccsc3n2)c1)c1ccc(F)cc1
IC50 [1]: 25 nM | inhibition [2]: 30%

Cc1ccc(C(=O)Nc2cccc(-c3nc(NC(P(=O)(O)O)P(=O)(O)O)c4ccsc4n3)c2)cc1F
IC50 [1]: 21 nM | inhibition [2]: 35% | EC50 (RPMI-8226): 290 nM

Cc1ccc(NC(=O)c2cccc(-c3nc(NC(P(=O)(O)O)P(=O)(O)O)c4ccsc4n3)c2)cc1Br
IC50 [1]: 15 nM | inhibition [2]: 12% | EC50 (RPMI-8226): 161 nM

O=C(Nc1cccc(-c2nc(NC(P(=O)(O)O)P(=O)(O)O)c3ccsc3n2)c1)c1ccc(C(F)(F)F)cc1
IC50 [1]: 18 nM | inhibition [2]: 40% | EC50 (RPMI-8226): 710 nM

O=C(Cc1cccnc1)Nc1cccc(-c2nc(NC(P(=O)(O)O)P(=O)(O)O)c3ccsc3n2)c1
IC50 [1]: 71 nM | inhibition [2]: 60% | EC50 (RPMI-8226): 1200 nM

COc1ccc([C@H](OC(C)C)C(=O)Nc2cccc(-c3nc(NC(P(=O)(O)O)P(=O)(O)O)c4ccsc4n3)c2)cc1F
IC50 [1]: 17 nM | EC50 (RPMI-8226): 880 nM | IC50 [3]: 460 nM

O=C(Nc1cccc(-c2nc(NC(P(=O)(O)O)P(=O)(O)O)c3ccsc3n2)c1)c1ccccc1
IC50 [1]: 19 nM | inhibition [2]: 40% | EC50 (RPMI-8226): > 500 nM

COc1ccc(S(=O)(=O)Nc2cccc(-c3nc(NC(P(=O)(O)O)P(=O)(O)O)c4ccsc4n3)c2)cc1F
IC50 [1]: 24 nM | inhibition [2]: 40% | EC50 (RPMI-8226): 4700 nM

COc1ccc(C(=O)Nc2cccc(-c3nc(NC(P(=O)(O)O)P(=O)(O)O)c4ccsc4n3)c2)cc1Br
IC50 [1]: 36 nM | inhibition [2]: 40% | EC50 (RPMI-8226): > 500 nM

COc1ccc(NC(=O)Nc2cccc(-c3nc(NC(P(=O)(O)O)P(=O)(O)O)c4ccsc4n3)c2)cc1F
IC50 [1]: 34 nM | EC50 (RPMI-8226): 1300 nM

CC(C)C[C@H](NC(=O)[C@H](Cc1ccccc1)NC(=O)c1cnccn1)B(O)O [BORTEZOMIB]
viability at 72 h, 0.05 µM (in vitro): 40.1%

O=C(Nc1ccccc1)c1cccc(-c2nc(NC(P(=O)(O)O)P(=O)(O)O)c3ccsc3n2)c1
IC50 [1]: 41 nM

Cc1ccc(NC(=O)c2cccc(-c3nc(NC(P(=O)(O)O)P(=O)(O)O)c4ccsc4n3)c2)cc1F
IC50 [1]: 31 nM | inhibition [2]: 28% | EC50 (RPMI-8226): 130 nM

O=C(Nc1cccc(-c2nc(NC(P(=O)(O)O)P(=O)(O)O)c3ccsc3n2)c1)c1ccc(C(F)(F)F)cn1
IC50 [1]: 52 nM | inhibition [2]: 60% | EC50 (RPMI-8226): 21300 nM

CC(C)O[C@@H](C(=O)Nc1cccc(-c2nc(NC(P(=O)(O)O)P(=O)(O)O)c3ccsc3n2)c1)c1ccccc1
IC50 [1]: 23 nM | EC50 (RPMI-8226): 910 nM

COc1ccc(NS(=O)(=O)c2cccc(-c3nc(NC(P(=O)(O)O)P(=O)(O)O)c4ccsc4n3)c2)cc1F
IC50 [1]: 23 nM | inhibition [2]: 25% | EC50 (RPMI-8226): 5000 nM

Cc1ccc(S(=O)(=O)Nc2cccc(-c3nc(NC(P(=O)(O)O)P(=O)(O)O)c4ccsc4n3)c2)cc1F
IC50 [1]: 23 nM | inhibition [2]: 30% | EC50 (RPMI-8226): 7800 nM

O=P(O)(O)C(Nc1nc(-c2ccccc2)nc2sccc12)P(=O)(O)O
IC50 [1]: 37 nM | EC50 (RPMI-8226): > 10000 nM

CC(C)C[C@H](NC(=O)[C@H](CCc1ccccc1)NC(=O)CN1CCOCC1)C(=O)N[C@@H](Cc1ccccc1)C(=O)N[C@@H](CC(C)C)C(=O)[C@@]1(C)CO1 [CARFILZOMIB]
viability at 72 h, 0.05 µM (in vitro): 43.6%

CO[C@@H](C(=O)Nc1cccc(-c2nc(NC(P(=O)(O)O)P(=O)(O)O)c3ccsc3n2)c1)c1ccccc1
IC50 [1]: 39 nM | inhibition [2]: 48% | EC50 (RPMI-8226): 920 nM

CC(C)O[C@H](C(=O)Nc1cccc(-c2nc(NC(P(=O)(O)O)P(=O)(O)O)c3ccsc3n2)c1)c1ccccc1
IC50 [1]: 21 nM | inhibition [2]: 35% | EC50 (RPMI-8226): 135 nM

O=C(Nc1ccc(F)cc1)Nc1cccc(-c2nc(NC(P(=O)(O)O)P(=O)(O)O)c3ccsc3n2)c1
IC50 [1]: 41 nM | inhibition [2]: 90% | EC50 (RPMI-8226): 4100 nM

COc1ccc(C(=O)Nc2cccc(-c3nc(NC(P(=O)(O)O)P(=O)(O)O)c4ccsc4n3)c2)cc1F
IC50 [1]: 29 nM | inhibition [2]: 60% | EC50 (RPMI-8226): 460 nM

O=C(Cc1ccccc1)Nc1cccc(-c2nc(NC(P(=O)(O)O)P(=O)(O)O)c3ccsc3n2)c1
IC50 [1]: 23 nM | inhibition [2]: 55% | EC50 (RPMI-8226): 740 nM
